# Results taken from patent US20050158805A1, “Toxicity test” (priority 2002, published 2005).
# Assays:
# HepG2 spheroids = assay: Spheroid cell spreading inhibition test (SCSIT) using fresh HepG2 spheroids; assay type: cell-based, Human; conditions: for SCSIT result (spheroid cell spreading inhibition): fresh HepG2 spheroids, batches A-C; for concentrations at which HepG2 spheroid cell spreading is inhibited: HepG2 spheroids, read from tables
# Description: (§1) The inventors have developed a cell spreading inhibition test based on the observed spheroid cell growth, or “spreading” of cells in spheroids when the spheroids are grown on a suitable surface and at static state i.e. without shaking. […] This inhibition of cell spreading provides an indicator of toxicity.
# (§2) According to a first aspect of the invention, there is provided an in vitro toxicity assay comprising: • a) exposing a spheroid sample to a selected concentration of a compound to be assayed; • b) incubating the spheroid sample for a suitable period of time; and • c) observing if spheroid cell spreading inhibition takes place. […] However, if there is observable cell spreading from one or more of the spheroids in the sample, this is a cell spreading inhibition negative (−) result.
# (§3) In the following examples, fresh liver or HepG2 spheroids were used.
# HepG2 cell line (Human Hepatocyte Carinomal cells, from ECACC) was cultured as a monolayer in a 75 cm^2 flask at an initial density of 10^2 cells/cm^2 in a culture medium containing MEM (Sigma) supplemented with 10% FBS, 200 nM L-Glutamine, 100 U/ml pencillin and 100 μg/ml streptomycin (GibcoBril). HepG2 cells of confluent flasks were detached by trypsin and pooled together to be counted by trypan blue dye excretion. The cell suspension was diluted with culture medium (MEM supplemented with 5% FBS, […] L-glutamine, 100 U/ml penicillin and 100 μg/ml streptomycin) to give 1×10^6 cell/ml cell suspension. The cell suspension was plated into 6-well plates, 3 ml/well. The plate was placed on a gyrotatory shaker (New Brunswick) at 83 rpm in a 37° C. CO2 incubator for the first 24 h, and then the rotation speed reduced to 77 rpm. After 6 DIV culture, spheroids were ready for use.
# (§4) 3 to 5 freshly prepared spheroids were transferred into each well of a 24 well plate and exposed to galactosamine at various concentrations as detailed in Tables 1 and 2. Two wells were used for each concentration of galactosamine. The spheroids were incubated in Hepatocyte medium (Sigma) supplemented with 10-15% FCS, […] L-glutamine, 100 U/ml penicillin and 100 μg/ml streptomycim sulfate, and placed in a 5% CO2 incubator at 37° C. and the effects on spheroid cell spreading inhibition observed after 48 hours exposure of the cells to galactosamine: […]
# liver spheroids = assay: Spheroid cell spreading inhibition test (SCSIT) using fresh liver spheroids; assay type: cell-based, male Wistar rats; conditions: for SCSIT result (spheroid cell spreading inhibition): fresh liver spheroids, batches A-C; for concentrations at which liver spheroid cell spreading is inhibited: liver spheroids, read from tables
# Description: as §1, §2, §3
# Liver spheroids were prepared from the liver of male Wistar rats by a two-step collagenase perfusion method described by Seglen P.O. ((1976). Preparation of isolated rat liver cells. Methods Cell. Biol. 13, 29-38) and modified by Lazar, A.; Peshwa, M. V., Wu, F. J., Chi, C. M., Cerra, F. B., and Hu, W. S. (1995). Extended liver-specific functions of procine hepatocyte spheroids entrapped in collagen gel. In Vitro Cell Biol Anim. 31, 340-346). Viability of the isolated liver cells was determined by tyrpan blue dye exclusion i.e. an aliquot of isolated liver cells was mixed with an equal volume of trypan blue dye (1.0% w/v in isotonic saline) and incubated at room temperature for a minimum period of 5 minutes. Only isolated liver cell preparations with viability above 80% were used to prepare liver spheroids. The cell suspension was diluted with culture medium (hepatocyte medium supplemented with 5% FCS, […] L-glutamine, 2 ng/ml insulin, 100 U/ml penicillin and 100 μg/ml streptomycin sulfate) to give a cell density of 5×10^5 cells/ml. The diluted cell suspension was dispersed into 6-well plates, 3 ml/well. The plates were incubated at 37° C., in a 5% CO2 incubator on a gyrotatory shaker (New Brunswick) at an initial rotation speed of 85 rpm for the first 24 hr and 77 rpm thereafter. The plates were rotated at this speed for the duration of the study (up to 45 days, but typically 2-10 days). 1.5 ml of old medium was replaced with 2.0 ml fresh medium for each well every other day. Media exchange was carried out over the duration of the study (up to 45 days, but typically 2-10 days).
# as §4
smiles,measurement,setting,value
O=C(O)Cc1ccccc1Nc1c(Cl)cccc1Cl [diclofenac],SCSIT result (spheroid cell spreading inhibition),HepG2 spheroids; 0.1 μM,−
same,SCSIT result (spheroid cell spreading inhibition),HepG2 spheroids; 1 μM,−
same,SCSIT result (spheroid cell spreading inhibition),HepG2 spheroids; 10 μM,−
same,SCSIT result (spheroid cell spreading inhibition),HepG2 spheroids; 100 μM,−
same,SCSIT result (spheroid cell spreading inhibition),HepG2 spheroids; 1000 μM,+
same,concentrations at which HepG2 spheroid cell spreading is inhibited,HepG2 spheroids,≥ 1000 µM
same,SCSIT result (spheroid cell spreading inhibition),liver spheroids; 0.1 μM,−
same,SCSIT result (spheroid cell spreading inhibition),liver spheroids; 1 μM,−
same,SCSIT result (spheroid cell spreading inhibition),liver spheroids; 10 μM,−
same,SCSIT result (spheroid cell spreading inhibition),liver spheroids; 100 μM,−
same,SCSIT result (spheroid cell spreading inhibition),liver spheroids; 1000 μM,+
same,spheroid cell spreading inhibition (FIG. 4A),"liver spheroids; liver spheroid, 100 μM, 48 hours after exposure",no spheroid cell spreading inhibition is observed
same,spheroid cell spreading inhibition (FIG. 4B),"liver spheroids; liver spheroid, 1000 μM, 48 hours after exposure",spheroid cell spreading was inhibited
same,concentrations at which liver spheroid cell spreading is inhibited,liver spheroids,≥ 1000 µM
N[C@H]1C(O)O[C@H](CO)[C@H](O)[C@@H]1O (stereo partly drawn) [galactosamine],SCSIT result (spheroid cell spreading inhibition),"HepG2 spheroids; 4 mM, 48 hours exposure",−
same,SCSIT result (spheroid cell spreading inhibition),"HepG2 spheroids; 10 mM, 48 hours exposure",−
same,SCSIT result (spheroid cell spreading inhibition),"HepG2 spheroids; 16 mM, 48 hours exposure",+
same,SCSIT result (spheroid cell spreading inhibition),"HepG2 spheroids; 20 mM, 48 hours exposure",+
same,SCSIT result (spheroid cell spreading inhibition),"HepG2 spheroids; 40 mM, 48 hours exposure",+
same,concentrations at which HepG2 spheroid cell spreading is inhibited,HepG2 spheroids,≥ 16000 µM
same,SCSIT result (spheroid cell spreading inhibition),"liver spheroids; 4 mM, 48 hours exposure",−
same,SCSIT result (spheroid cell spreading inhibition),"liver spheroids; 10 mM, 48 hours exposure",−
same,SCSIT result (spheroid cell spreading inhibition),"liver spheroids; 16 mM, 48 hours exposure",−
same,SCSIT result (spheroid cell spreading inhibition),"liver spheroids; 20 mM, 48 hours exposure",+
same,SCSIT result (spheroid cell spreading inhibition),"liver spheroids; 40 mM, 48 hours exposure",+
same,spheroid cell spreading inhibition (FIG. 2B),"liver spheroids; liver spheroid, 16 mM, 48 hours after exposure",no spheroid cell spreading inhibition is observed
same,spheroid cell spreading inhibition (FIG. 2C),"liver spheroids; liver spheroid, 40 mM, 48 hours after exposure",spheroid cell spreading was inhibited
same,concentrations at which liver spheroid cell spreading is inhibited,liver spheroids,≥ 20000 µM
CC(=O)Nc1ccc(O)cc1 [paracetamol],SCSIT result (spheroid cell spreading inhibition),HepG2 spheroids; 5 μM,−
same,SCSIT result (spheroid cell spreading inhibition),HepG2 spheroids; 50 μM,−
same,SCSIT result (spheroid cell spreading inhibition),HepG2 spheroids; 500 μM,−
same,SCSIT result (spheroid cell spreading inhibition),HepG2 spheroids; 5 mM,−
same,SCSIT result (spheroid cell spreading inhibition),HepG2 spheroids; 50 mM,+
same,concentrations at which HepG2 spheroid cell spreading is inhibited,HepG2 spheroids,≥ 50000 µM
same,SCSIT result (spheroid cell spreading inhibition),liver spheroids; 5 μM,−
same,SCSIT result (spheroid cell spreading inhibition),liver spheroids; 50 μM,−
same,SCSIT result (spheroid cell spreading inhibition),liver spheroids; 500 μM,−
same,SCSIT result (spheroid cell spreading inhibition),liver spheroids; 5 mM,−
same,SCSIT result (spheroid cell spreading inhibition),liver spheroids; 50 mM,+
same,spheroid cell spreading inhibition (FIG. 5A),"liver spheroids; liver spheroid, 5 mM, 48 hours after exposure",no spheroid cell spreading inhibition is observed
same,spheroid cell spreading inhibition (FIG. 5B),"liver spheroids; liver spheroid, 50 mM, 48 hours after exposure",spheroid cell spreading was inhibited
same,concentrations at which liver spheroid cell spreading is inhibited,liver spheroids,≥ 50000 µM
